The assay concerns the target T1, human renin (Homo sapiens, UniProt P00797).
T1 sequence (P00797 67-406): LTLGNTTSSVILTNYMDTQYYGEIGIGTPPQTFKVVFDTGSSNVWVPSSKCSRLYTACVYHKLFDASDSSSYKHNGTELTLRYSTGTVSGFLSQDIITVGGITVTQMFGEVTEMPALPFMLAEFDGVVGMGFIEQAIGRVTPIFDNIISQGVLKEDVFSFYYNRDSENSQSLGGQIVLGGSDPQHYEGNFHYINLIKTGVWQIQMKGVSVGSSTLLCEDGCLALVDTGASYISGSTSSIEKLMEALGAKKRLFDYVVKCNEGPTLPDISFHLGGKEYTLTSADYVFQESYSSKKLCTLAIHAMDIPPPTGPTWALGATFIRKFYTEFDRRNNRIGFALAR
The experiment in a line: Determination of renin IC50 by tGFP FRET assay. Type of assay: biochemical. To be noted: Human recombinant renin, tandem GFP substrate 650 nM, 60 min incubation with compound, pH 7.4, 11-point curve. The text has this:
Determination of Renin IC50 by tGFP FRET Assay
The tGFP FRET (fluorescence resonance energy transfer) assay utilizes a tandem GFP substrate (60 kDa, Discovery Technologies) containing nine amino acid recognition sequences for human renin flanked by two GFP proteins. The assay is used to determine the ability of a compound to act as an inhibitor of renin enzymatic activity by determination of that concentration of test compound that inhibits by 50% (IC50) the ability of renin to cleave the tandem GFP substrate. The IC50 values are determined over an 11-point curve at concentrations of 100 μM to 1 pM. Each compound concentration used to construct the curve was dependent on renin inhibitor potency. For example, subnanomolar IC50 values were determined over an 11-point curve at concentrations of 10 μM to 1 pM. All other IC50 values were determined over an 11-point curve at concentrations of 100 μM to 0.0065 μM. The concentrations were achieved by diluting a 9.1 nM stock of Human recombinant renin in the appropriate amount of buffer containing 50 mM HEPES, 1 mM EDTA, 1% PEG (8000 MW), 1 mM DTT, 0.1% BSA, pH 7.4 to achieve the final concentration of 50.4 μIU. The tGFP substrate stock solution of 43 μM was diluted with the appropriate amount of the above buffer to obtain the final concentration of 650 nM. In addition, 1 μl of the compound is diluted in dimethylsulfoxide (DMSO) to represent an […] log scale (5% final). The SR renin and compound are added to a 384 capacity plate by an automated robot (BIOMEK). The plate is incubated for 60 minutes; upon completion the tGFP substrate is added.
The IC50 is determined by monitoring the increase in […] at 432/432 nm excitation, 530/475 nm emission with a cutoff at 515/455 nm, in a fluorometric plate reader.

In patent US20040214832A1, “Piperazine derivative renin inhibitors” (priority 2003, published 2004) one finds IC50 data, which are given here for 27 molecules.

As a reminder, the IC50 is the midpoint of a concentration-inhibition curve. Consider `COc1ccc(COC[C@H]2CNCCN2c2ccc(COCCCOc3ccccc3OC)cc2)cc1` [Example 70, (2R)-2-(4-methoxybenzyloxymethyl)-1-{4-[3-(2-methoxyphenoxy)-propoxymethyl]-phenyl}-piperazine], for which the 50% inhibitory concentration (IC50) is greater than 1000 nM.

Regarding `COc1ccc(COC[C@H]2CNCCN2c2ccc(OCCCOCc3ccccc3)cc2)cc1` [Example 34, (2R)-1-[4-(3-benzyloxypropoxy)-phenyl]-2-(4-methoxybenzyloxymethyl)-piperazine], the half-inhibitory concentration (IC50) was determined as 10900 nM.

Take `COc1ccccc1COCCCOc1ccc(N2C(=O)CNC[C@@H]2COc2ccc3c(c2)N(CCCO)CCC3)cc1` [Example 44, (6R)-6-[1-(3-hydroxypropyl)-1,2,3,4-tetrahydroquinolin-7-yloxymethyl]-1-{4-[3-(2-methoxybenzyloxy)-propoxy]-phenyl}-piperazin-2-one]: the half-maximal inhibitory concentration (IC50) was determined as 37 nM.

Regarding `COc1ccc(COC[C@H]2CNCCN2c2ccc(OCCCOCc3ccc(Cl)c(Cl)c3)cc2)cc1` [Example 63, (2R)-1-{4-[3-(3,4-dichlorobenzyloxy)-propoxy]-phenyl}-2-(4-methoxybenzyloxymethyl)-piperazine], the IC50 amounted to 11500 nM.

For `COc1ccccc1COCCCOc1ccc(N2C(=O)CNC[C@@H]2CNC(=O)c2ccc3ccccc3c2)cc1` [Example 85, naphthalene-2-carboxylic acid ([2R]-1-{4-[3-(2-methoxybenzyloxy)-propoxy]-phenyl}-6-oxopiperazin-2-ylmethyl)-amide], the IC50 was greater than 1000 nM.

For `COc1ccc(COC[C@H]2CNCCN2c2ccc(OCCCOCc3cccc(Cl)c3)cc2)cc1` [Example 64, (2R)-1-{4-[3-(3-chlorobenzyloxy)-propoxy]-phenyl}-2-(4-methoxybenzyloxymethyl)-piperazine], the IC50 worked out at 5040 nM.

In the case of `COc1ccccc1COCCCOc1ccc(N2C(=O)CNC[C@@H]2COCc2ccccc2)cc1` [Example 45, (6R)-6-benzyloxymethyl-1-{4-[3-(2-methoxybenzyloxy)-propoxy]-phenyl}-piperazin-2-one], the IC50 worked out at 7010 nM.

Regarding `COc1ccccc1COCCCOc1ccc(N2C(=O)CNC[C@@H]2COCc2ccc(F)cc2)cc1` [Example 8, (6R)-6-(4-fluorobenzyloxymethyl)-1-{4-[3-(2-methoxybenzyloxy)-propoxy]-phenyl}-piperazin-2-one], the IC50 was determined as 454 nM.

As to `COc1ccccc1COCCCOc1ccc(N2C(=O)CNC[C@@H]2COc2ccc3ccccc3c2)cc1Cl` [Example 100, (6R)-1-(3-chloro-4-[3-(2-methoxybenzyloxy)-propoxy]-phenyl)-6-(naphthalene-2-yloxymethyl)-piperazin-2-one], the half-maximal inhibitory concentration (IC50) is greater than 1000 nM.

With `COc1ccc2ccc(OC[C@H]3CNCC(=O)N3c3ccc(OCCCOCc4ccccc4OC)cc3)cc2c1` [Example 105, (6R)-1-{4-[3-(2-methoxybenzyloxy)-propoxy]-phenyl}-6-(7-methoxynaphthalen-2-yloxymethyl)-piperazin-2-one], the half-inhibitory concentration (IC50) was found to be 225 nM.

In the case of `O=C(NCCOc1ccccc1)c1ccc(N2C(=O)CNC[C@@H]2COc2ccc3ccccc3c2)cc1` [Example 53, 4-[(2R)-2-(naphthalen-2-yloxymethyl)-6-oxopiperazin-1-yl]-N-(2-phenoxyethyl)-benzamide], the IC50 was greater than 1000 nM.

Consider `CCOC(=O)CN1C(=O)COc2ccc(SC[C@H]3CNCC(=O)N3c3ccc(OCCCOCc4ccccc4OC)cc3)cc21` [Example 129, [6-([2R]-1-{4-[3-(2-Methoxybenzyloxy)-propoxy]-phenyl}-6-oxo-piperazin-2-ylmethylsulfanyl)-3-oxo-2,3-dihydro-benzo[1,4]oxazin-4-yl]-acetic acid ethyl ester], for which the half-inhibitory concentration (IC50) amounted to 0.17 nM.

On to `COC(=O)CN1CCCc2ccc(OC[C@H]3CNCC(=O)N3c3ccc(OCCCOCc4ccccc4OC)cc3)cc21` [Example 110, {7-[(2R)-1-{4-[3-(2-Methoxybenzyloxy)-propoxy]-phenyl}-6-oxopiperazin-2-ylmethoxy]-3,4-dihydro-2H-quinolin-1-yl}-acetic acid methyl ester], for which the IC50 is 4.09 nM.

With `COc1ccccc1COCCCOc1ccc(N2C(=O)CNC[C@@H]2COC(=O)c2ccccc2)cc1` [Example 61, benzoic acid (2R)-1-{4-[3-(2-methoxybenzyloxy)-propoxy]-phenyl}-6-oxopiperazin-2-yl methyl ester], the concentration for half-maximal inhibition (IC50) was greater than 1000 nM.

With `COc1ccccc1COCCCOc1ccc(N2C(=O)CNC[C@@H]2CNC(=O)c2ccccc2)cc1` [Example 84, N-([2R]-1-{4-[3-(2-methoxy-benzyloxy)-propoxy]-phenyl}-6-oxopiperazin-2-ylmethyl)-benzamide], the concentration for half-maximal inhibition (IC50) was greater than 1000 nM.

In the case of `COC(=O)Cn1ccc2cc(OC[C@@H]3CNCC(=O)N3c3ccc(OCCCOCc4ccccc4OC)cc3)ccc21` [Example 113, [5-([2S]-1-{4-[3-(2-Methoxybenzyloxy)-propoxy]-phenyl}-6-oxopiperazin-2-ylmethoxy)-indol-1-yl]-acetic acid methyl ester], the half-inhibitory concentration (IC50) worked out at 10 nM.

As to `COc1ccccc1COCCCOc1ccc(N2C(=O)CNC[C@@H]2COCc2ccccc2C)cc1` [Example 21, (6R)-1-{4-[3-(2-methoxybenzyloxy)-propoxy]-phenyl}-6-(2-methylbenzyloxymethyl)-piperazin-2-one], the half-inhibitory concentration (IC50) was greater than 1000 nM.

In the case of `COc1ccccc1COCCCOc1ccc(N2C(=O)CNC[C@@H]2COc2ccc3ccccc3c2)cc1C` [Example 103, (6R)-1-{4-[3-(2-methoxybenzyloxy)-propoxy]-3-methyl-phenyl}-6-(naphthalene-2-yloxymethyl)-piperazin-2-one], the IC50 amounted to 167 nM.

Consider `COc1ccccc1COCCCOc1ccc(N2C(=O)CNC[C@@H]2COc2cccc(-c3ccccc3)c2)cc1` [Example 106, (6R)-6-(biphenyl-3-yloxymethyl)-1-{4-[3-(2-methoxybenzyloxy)-propoxy]-phenyl}-piperazin-2-one], for which the half-maximal inhibitory concentration (IC50) turned out to be 1510 nM.

For the molecule `COc1ccccc1COCCCOc1ccc(N2C(=O)CNC[C@@H]2COc2ccc3ncccc3c2)cc1` [Example 52, (6R)-1-{4-[3-(2-methoxybenzyloxy)-propoxy]-phenyl}-6-(quinolin-6-yloxymethyl)-piperazin-2-one], the concentration for half-maximal inhibition (IC50) came to 3450 nM.

As for `COCCCOc1cc(N2C(=O)CNC[C@@H]2COc2ccc3ccccc3c2)ccc1OC` [Example 48, (6R)-1-[4-methoxy-3-(3-methoxypropoxy)-phenyl]-6-(naphthalen-2-yloxymethyl)-piperazin-2-one], the IC50 stood at 3840 nM.

On to `COc1ccccc1COCCCOc1ccc(N2C(=O)CNC[C@@H]2COc2ccc3ccccc3c2)cc1` [Example 37, (6R)-1-{4-[3-(2-methoxybenzyloxy)-propoxy]-phenyl}-6-(naphthalen-2-yloxymethyl)-piperazin-2-one], for which the 50% inhibitory concentration (IC50) turned out to be 54 nM.

With `COc1ccccc1COCCCOc1c(F)cc(N2C(=O)CNC[C@@H]2COc2ccc3ccccc3c2)cc1F` [Example 43, (6R)-1-{3,5-difluoro-4-[3-(2-methoxybenzyloxy)-propoxy]-phenyl}-6-(naphthalen-2-yloxymethyl)-piperazin-2-one], the half-maximal inhibitory concentration (IC50) came out at 883 nM.

For the molecule `COc1ccccc1COCCCOc1ccc(N2C(=O)CNC[C@@H]2COCc2ccc(F)c(C(F)(F)F)c2)cc1` [Example 26, (6R)-6-(4-fluoro-3-trifluoromethylbenzyloxymethyl)-1-{4-[3-(2-methoxybenzyloxy)-propoxy]-phenyl}-piperazin-2-one], the half-inhibitory concentration (IC50) was determined as 132 nM.

For the molecule `COc1ccccc1COCCCOc1ccc(N2CCNC[C@@H]2COc2ccc3ccccc3c2)cc1` [Example 32, (2R)-1-{4-[3-(2-methoxybenzyloxy)-propoxy]-phenyl}-2-(naphthalen-2-yloxymethyl)-piperazine], the IC50 worked out at 153 nM.

Turning to `COC(=O)Cn1c(C)cc2cc(OC[C@H]3CNCC(=O)N3c3ccc(OCCCOCc4ccccc4OC)cc3)ccc21` [Example 121, [5-([2R]-1-{4-[3-(2-Methoxybenzyloxy)-propoxy]-phenyl}-6-oxopiperazin-2-ylmethoxy)-2-methyl-indol-1-yl]-acetic acid methyl ester], the IC50 was found to be 6 nM.

With `COCCCN1C(=O)CCc2ccc(OC[C@@H]3CNCC(=O)N3c3ccc(OCCCOCc4ccccc4OC)cc3)cc21` [Example 112, 7-([2S]-1-{4-[3-(2-Methoxybenzyloxy)-propoxy]-phenyl}-6-oxopiperazin-2-ylmethoxy)-1′-(3-methoxypropyl)-3,4-dihydro-1H-quinolin-2-one], the IC50 is 1.7 nM.
